Key:
Assay type in all cases: in vivo, human
[1] = tested on: patient suffering from tendinitis caused by practicing tennis; test: Topical cream treatment of tendinitis caused by tennis (Example 2); settings: 5% (w/w) in formulation 2 cream, applied on the skin during 2 minutes; person
Procedure: Glucosamine or one or more of its derivatives was added in the appropriate amount to one of the following formulations. The compositions thus obtained were tested as described in the Examples. All percentages are by weight (w/w) unless otherwise indicated. A patient suffering from tendinitis caused by practicing tennis was treated with formulation 2 containing glucosamine sulphate 5% (w/w). The cream was normally applied on the skin during 2 minutes to allow the penetration. Pain relief occurred already after 50 seconds and lasted for at least 2 hours. After 12 hours the same patient was treated with formulation 2 without glucosamine. There was no pain relief after similar application.

[2] = tested on: patient suffering from herpes simplex type I infection around the nose showing extensive fissures; test: Topical treatment of herpes simplex type I lesions around the nose (Example 3); settings: 3% (w/w) in formulation 3
Procedure: Glucosamine or one or more of its derivatives was added in the appropriate amount to one of the following formulations. The compositions thus obtained were tested as described in the Examples. All percentages are by weight (w/w) unless otherwise indicated. A patient suffering from herpes simplex type I infection around the nose showing extensive fissures was treated with formulation 3 containing 3% glucosamine sulfate (w/w). Already after 30 seconds pain and itching relief occurred and lasted during 3 hours.

[3] = tested on: patient suffering from pain in the knee caused by a light collision; test: Topical treatment of knee pain after a collision (Example 4); settings: 10% (w/w) in formulation 3
Procedure: Glucosamine or one or more of its derivatives was added in the appropriate amount to one of the following formulations. The compositions thus obtained were tested as described in the Examples. All percentages are by weight (w/w) unless otherwise indicated. A patient suffering from pain in the knee caused by a light collision during a car accident was treated with formulation 3 containing 10% (w/w) glucosamine sulfate. Pain relief occurred after 50 seconds and lasted during 3 hours.

[4] = tested on: patient suffering from sore throat caused by β-hemolytic streptococci; test: Spray treatment of a patient with sore throat (Example 1)
Procedure: Glucosamine or one or more of its derivatives was added in the appropriate amount to one of the following formulations. The compositions thus obtained were tested as described in the Examples. All percentages are by weight (w/w) unless otherwise indicated. A patient suffering from sore throat caused by β-hemolytic streptococci was treated with a water solution (formulation 1) of N-acetyl-glucosamine (8% w/w). The solution was sprayed into the mouth during 10 seconds in order to treat the infected area. Pain relief occurred already 20 seconds after application and lasted for at least 1,5 hour. 12 hours later the same patient was treated with spray containing glucosamine HCl (9% w/w and 20% glycerol and 10% alcohol in water). Pain relief occurred again very quickly, 36 seconds after, application and lasted for at least 2 hours.

[5] = tested on: child suffering from diaper allergy; test: Topical treatment of diaper allergy (Example 5); settings: 5% (w/w) in composition 2; applications for 1 week, 3 times a day; male, 8 months
Procedure: Glucosamine or one or more of its derivatives was added in the appropriate amount to one of the following formulations. The compositions thus obtained were tested as described in the Examples. All percentages are by weight (w/w) unless otherwise indicated. […]

[6] = tested on: patient with allergy for cats; test: Topical treatment of itching from cat allergy (Example 7); settings: 5% (w/w) in composition 3
Procedure: Glucosamine or one or more of its derivatives was added in the appropriate amount to one of the following formulations. The compositions thus obtained were tested as described in the Examples. All percentages are by weight (w/w) unless otherwise indicated. A patient with allergy for cats (person) was confronted with a stroked cat (2 years old) in a closed room (6 m×4 m×3 m) during 10 minutes. 8 minutes later itching started all over the forehead and progressed after 15 minutes to the nose (external×internal). The patient was treated on the left side of the forehead with composition 3 and on the right side of the forehead with composition 3 containing 5% (w/w) glucosamine HCl. Itching completely disappeared after 45 seconds on the right side while there was still itching on the left side. The nose was also treated inside and outside with the active cream. Itching decreased drastically already after 50 seconds.

[7] = tested on: patient suffering from arthritis urica; test: Topical treatment of arthritis urica (Example 9); settings: 9% (w/w) in composition 2; right foot, 4 successive treatments with an interval of 10 minutes; person
Procedure: Glucosamine or one or more of its derivatives was added in the appropriate amount to one of the following formulations. The compositions thus obtained were tested as described in the Examples. All percentages are by weight (w/w) unless otherwise indicated. A patient suffering from arthritis urica, and not taking any medication, was treated with composition 2 containing 9% (w/w) glucosamine HCl all over the affected right foot by 4 successive treatments with an interval of 10 minutes.

[8] = tested on: patient suffering from eczema (atopical) on the arm-bends; test: Topical treatment of atopical eczema (Example 10); settings: 8% (w/w) in composition 3; left arm; person
Procedure: Glucosamine or one or more of its derivatives was added in the appropriate amount to one of the following formulations. The compositions thus obtained were tested as described in the Examples. All percentages are by weight (w/w) unless otherwise indicated. A patient suffering from eczema (atopical) (person) on the arm-bends was treated with composition 3 containing 8% (w/w) glucosamine HCl on the left arm and composition 3 on the right arm. Itching decreased drastically after 15 seconds and lasted during 2 hours only on the left arm. From the above it follows that the therapeutical compositions of the invention can be used to alleviate itching and pain which result from a variety of causes. The relief is obtained very quickly and lasts for a considerable period of time.

[9] = tested on: patient with a tendinitis due to the practice of bowling sport; test: Topical treatment of tendinitis due to bowling (Example 6); settings: 6% (w/w) in composition 3
Procedure: Glucosamine or one or more of its derivatives was added in the appropriate amount to one of the following formulations. The compositions thus obtained were tested as described in the Examples. All percentages are by weight (w/w) unless otherwise indicated.
A patient with a tendinitis due to the practice of bowling sport was treated 2 days after the onset of pain with composition 3 containing 6% (w/w) N-acetyl D-glucosamine. Pain relief occurred 25 seconds later.

[10] = spray 9% w/w with 20% glycerol and 10% alcohol in water, same patient 12 hours later
[11] = 8% w/w in water (formulation 1), sprayed into the mouth during 10 seconds, person

## N[C@H]1C(O)O[C@H](CO)[C@@H](O)[C@@H]1O.O=S(=O)(O)O (stereo partly drawn) [glucosamine sulfate, D-glucosamine sulfate]
[1]
  duration of pain relief: at least 2 hours
  time to pain relief: 50 s
[2]; after 5 hours
  closure of fissures: most of the fissures were closed
[2]; person
  duration of pain and itching relief: 3 h
  time to pain and itching relief: 30 s
[3]; after 3 new successive treatments every 4 hours
  pain after repeated treatment: the pain was completely gone
[3]; person
  duration of pain relief: 3 h
  time to pain relief: 50 s

## Cl.N[C@H]1C(O)O[C@H](CO)[C@@H](O)[C@@H]1O (stereo partly drawn) [glucosamine HCl, D-glucosamine hydrochloride]
[4]; [10]
  duration of pain relief: at least 2 hours
  time to pain relief after application: 36 s
[5]
  relief of itching and pains: always immediate relief of itching and pains
[6]; nose treated inside and outside
  time until itching decreased drastically: 50 s
[6]; right side of the forehead, person
  time until itching completely disappeared: 45 s
[7]
  duration of pain relief: 4 h
  pain relief: Gradually strong pain relief occurred
[8]
  duration of itching decrease: 2 h
  time until itching decreased drastically: 15 s

## CC(=O)N[C@H]1C(O)O[C@H](CO)[C@@H](O)[C@@H]1O (stereo partly drawn) [N-acetyl-glucosamine, N-acetyl D-glucosamine]
[4]; [11]
  duration of pain relief: at least 1,5 hour
  time to pain relief after application: 20 s
[9]; 2 days after the onset of pain, person
  time to pain relief: 25 s
[9]; after 5 successive treatments every 2 hours
  pain after repeated treatment: pain was completely reduced
